Reference: ChEMBL document CHEMBL5053549, “Discovery of Potent and Novel Dual PARP/BRD4 Inhibitors for Efficient Treatment of Pancreatic Cancer” (J Med Chem, 2021)
pIC50: −log10 of the molar value. The source made the active and inactive calls. No cut-off for these calls is given here.

Tests used:
SW1990 [1] = assay: Inhibition of homologous recombinant repair in human SW1990 cells assessed as reduction in BRCA1 expression at 4 uM after 4 days by Western blot analysis; type: functional, cell-based; conditions: time 4.0 day
Mus musculus [2] = assay: Toxicity in BALB/c mouse xenografted with human SW1990 cells assessed as heart damage at 15 mg/kg, ip administered for 28 consecutive days by H and E staining based […] microscopic analysis; type: organism-based; conditions: in vivo, 672 h, time 28 day
SW1990 [3] = assay: Inhibition of homologous recombinant repair in human SW1990 cells assessed as reduction in Rad51 expression at 4 uM after 4 days by Q-PCR analysis; type: functional, cell-based; conditions: time 4.0 day
SW1990 [4] = assay: Induction of cell cycle arrest in human SW1990 cells assessed as accumulation of cells at G0/G1 phase at 4 uM incubated for 4 days by propidium iodide staining based flow cytometry (reference value: 64.79%); type: functional; conditions: time 4 day
SW1990 [5] = assay: Induction of DNA damage in human SW1990 cells assessed as increase in gammaH2AX at 1 uM incubated for 4 days in presence of Olaparib by immunofluorescence assay; type: functional, cell-based; conditions: time 4.0 day
[6] = target: Bromodomain testis-specific protein (Homo sapiens, UniProt Q58F21); assay: Inhibition of recombinant BRDT BD1 (unknown origin) incubated for 120 mins by TR-FRET assay
Mus musculus [7] = assay: Inhibition of homologous recombinant repair in human SW1990 cells xenografted in BALB/c mouse assessed as reduction in olaparib-induced Rad51 expression at 15 mg/kg, ip after 4 days by immunohistochemical analysis; type: functional, organism-based; conditions: time 4.0 day
[8] = target: Poly [ADP-ribose] polymerase 1 (Homo sapiens, UniProt P09874); assay: Inhibition of PARP1 (unknown origin) incubated for 45 mins in presence of biotinylated-NAD+ by microplate reader analysis
Chain of Poly [ADP-ribose] polymerase 1 (P09874 whole entry): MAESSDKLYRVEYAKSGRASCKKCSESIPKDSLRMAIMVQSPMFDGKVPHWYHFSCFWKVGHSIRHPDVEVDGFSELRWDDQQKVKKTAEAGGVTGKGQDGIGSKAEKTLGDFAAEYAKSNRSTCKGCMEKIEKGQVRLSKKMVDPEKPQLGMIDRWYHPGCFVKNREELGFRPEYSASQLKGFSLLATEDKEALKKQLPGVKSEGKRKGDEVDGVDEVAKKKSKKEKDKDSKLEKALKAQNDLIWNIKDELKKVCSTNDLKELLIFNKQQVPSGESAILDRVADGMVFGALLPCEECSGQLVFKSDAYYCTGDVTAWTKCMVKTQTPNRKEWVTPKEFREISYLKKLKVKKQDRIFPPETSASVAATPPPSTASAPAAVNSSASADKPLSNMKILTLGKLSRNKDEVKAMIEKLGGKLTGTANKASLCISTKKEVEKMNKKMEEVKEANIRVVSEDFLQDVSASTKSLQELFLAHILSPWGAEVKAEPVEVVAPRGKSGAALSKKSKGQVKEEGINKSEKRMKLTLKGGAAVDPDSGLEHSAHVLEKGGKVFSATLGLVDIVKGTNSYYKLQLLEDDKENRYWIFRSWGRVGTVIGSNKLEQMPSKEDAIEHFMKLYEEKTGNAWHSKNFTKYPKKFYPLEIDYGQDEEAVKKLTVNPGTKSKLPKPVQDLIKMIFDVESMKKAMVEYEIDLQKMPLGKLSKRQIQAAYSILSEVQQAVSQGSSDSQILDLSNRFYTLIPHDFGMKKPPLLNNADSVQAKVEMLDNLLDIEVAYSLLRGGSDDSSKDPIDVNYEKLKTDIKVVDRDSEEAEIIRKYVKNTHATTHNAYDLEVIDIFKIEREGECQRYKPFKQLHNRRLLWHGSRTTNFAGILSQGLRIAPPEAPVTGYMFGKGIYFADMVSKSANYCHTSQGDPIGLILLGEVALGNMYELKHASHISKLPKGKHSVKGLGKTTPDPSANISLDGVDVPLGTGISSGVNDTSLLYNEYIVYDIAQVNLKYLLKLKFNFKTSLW

SW1990 [9] = assay: Induction of autophagy in human SW1990 cells xenografted in BALB/c mouse assessed as increase in beclin1 expression at 45 mg/kg, ip after 4 days by Western blot analysis; type: functional, organism-based; conditions: time 4.0 day
Mus musculus [10] = assay: Effect on cell cycle progression in human SW1990 cells xenografted in BALB/c mouse assessed as reduction in E2F2 expression at 45 mg/kg, ip after 4 days by Q-PCR analysis; type: functional, organism-based; conditions: time 4.0 day
SW1990 [11] = assay: Induction of apoptosis in human SW1990 cells assessed as late apoptotic cells at 2 uM after 4 days by Annexin V-FITC and propidium iodide staining based flow cytometry (reference value: 6.22%); type: functional; conditions: time 4 day
SW1990 [12] = assay: Induction of autophagy in human SW1990 cells assessed as increase in ATG5 expression at 1 to 2 uM incubated for 4 days by immunofluorescence assay; type: functional, cell-based; conditions: dose 1-2 µM, time 4.0 day
SW1990 [13] = assay: Effect on cell cycle progression in human SW1990 cells assessed as reduction in PLK1 expression at 1 to 2 uM after 4 days by Western blot analysis; type: functional, cell-based; conditions: dose 1-2 µM, time 4.0 day

| Compound | inhibition (SW1990 [1]) | Activity (Mus musculus [2]) | inhibition (SW1990 [3]) | Activity (SW1990 [4]) [%] | Activity (SW1990 [5]) | pIC50 [6] | inhibition (Mus musculus [7]) | pIC50 [8] | Activity (SW1990 [9]) | Activity (Mus musculus [10]) | Activity (SW1990 [11]) [%] | Activity (SW1990 [12]) | Activity (SW1990 [13]) |
| --- | --- | --- | --- | --- | --- | --- | --- | --- | --- | --- | --- | --- | --- |
| Cc1sc2c(c1C)C(c1ccc(Cl)cc1)=N[C@@H](CC(=O)OC(C)(C)C)c1nnc(C)n1-2 | Active | Non-Toxic | Active | 75.06 | Active | – | – | – | – | – | – | – | – |
| CC[C@@H]1C(=O)N(C)c2cnc(N(C)c3ccc(-c4nc5c(C(N)=O)cccc5[nH]4)cc3OC)nc2N1C1CCCC1 | – | – | – | – | – | 5.92 | Active | 7.89 | Active | Active | 40.3 | Active | Active |
